Assay results: US8906852B2 (MethylGene Inc., priority 2010, dated 2014)

Target: T1, VEGFR/KDR (Homo sapiens, UniProt P35968)
T1 construct: made in house; host or cells: Sf9 cells (Spodoptera frugiperda), baculovirus
Assay: VEGFR/KDR kinase inhibition, DELFIA assay
Format: biochemical
Details: ATP 0.6 uM (2x Km), enzyme 5 nM
Method in brief: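 Enzyme (5 nM) pre-incubated 4 min on ice with inhibitor and Mg-ATP (0.6 uM, 2× Km), then reacted 10-30 min at 30° C on immobilized poly(Glu4,Tyr). EDTA-quenched phosphotyrosine detected with Europium-labeled antibody by time-resolved fluorescence; IC50 from concentration series.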

T1 sequence (P35968 806-1356): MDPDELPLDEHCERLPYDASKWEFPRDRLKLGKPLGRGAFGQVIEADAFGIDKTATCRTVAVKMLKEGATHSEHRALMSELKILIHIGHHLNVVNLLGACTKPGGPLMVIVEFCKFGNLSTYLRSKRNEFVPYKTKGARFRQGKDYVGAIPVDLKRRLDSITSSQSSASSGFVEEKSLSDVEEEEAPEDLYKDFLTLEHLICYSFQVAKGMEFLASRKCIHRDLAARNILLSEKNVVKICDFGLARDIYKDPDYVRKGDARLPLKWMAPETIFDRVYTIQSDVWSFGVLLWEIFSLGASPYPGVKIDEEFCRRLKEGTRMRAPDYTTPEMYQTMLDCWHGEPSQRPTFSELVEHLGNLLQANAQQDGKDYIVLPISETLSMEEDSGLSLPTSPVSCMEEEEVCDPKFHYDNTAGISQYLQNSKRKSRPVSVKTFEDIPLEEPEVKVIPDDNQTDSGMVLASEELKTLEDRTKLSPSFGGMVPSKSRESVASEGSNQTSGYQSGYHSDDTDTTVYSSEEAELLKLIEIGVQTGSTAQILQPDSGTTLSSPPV

SMILES | IC50 [nM]
O=C(O)CCCN1CCN(Cc2ccc(-c3cc4nccc(Oc5ccc(NC(=O)NC6CC6)cc5F)c4s3)nc2)CC1 [Compound 519, 4-(4-((6-(7-(4-(3-cyclopropylureido)-2-fluorophenoxy)thieno[3,2-b]pyridin-2-yl)pyridin-3-yl)methyl)piperazin-1-yl)butanoic acid] | < 50
O=C(O)CCCCCN1CCN(Cc2ccc(-c3cc4nccc(Oc5ccc(NC(=O)NC6CC6)cc5F)c4s3)nc2)CC1 [Compound 520, 6-(4-((6-(7-(4-(3-cyclopropylureido)-2-fluorophenoxy)thieno[3,2-b]pyridin-2-yl)pyridin-3-yl)methyl)piperazin-1-yl)hexanoic acid] | < 50
O=C(O)CCCCCCN1CCN(Cc2ccc(-c3cc4nccc(Oc5ccc(NC(=O)NC6CC6)cc5F)c4s3)nc2)CC1 [Compound 521, 7-(4-((6-(7-(4-(3-cyclopropylureido)-2-fluorophenoxy)thieno[3,2-b]pyridin-2-yl)pyridin-3-yl)methyl)piperazin-1-yl)heptanoic acid] | < 50
O=C(O)CCCCCCCN1CCN(Cc2ccc(-c3cc4nccc(Oc5ccc(NC(=O)NC6CC6)cc5F)c4s3)nc2)CC1 [Compound 522, 8-(4-((6-(7-(4-(3-cyclopropylureido)-2-fluorophenoxy)thieno[3,2-b]pyridin-2-yl)pyridin-3-yl)methyl)piperazin-1-yl)octanoic acid] | < 50
O=C(Nc1ccc(Oc2ccnc3cc(-c4ccc(CN5CCC6(CC5)CCN(C(=O)CO)C6)cn4)sc23)c(F)c1)NC1CC1 [Compound 524, 1-cyclopropyl-3-(3-fluoro-4-(2-(5-((2-(2-hydroxyacetyl)-2,8-diazaspiro[4.5]decan-8-yl)methyl)pyridin-2-yl)thieno[3,2-b]pyridin-7-yloxy)phenyl)urea] | < 50
O=C(Nc1ccc(Oc2ccnc3cc(-c4ccc(CN5CCCN(C(=O)CO)CC5)cn4)sc23)c(F)c1)NC1CC1 [Compound 526, 1-cyclopropyl-3-(3-fluoro-4-(2-(5-((4-(2-hydroxyacetyl)-1,4-diazepan-1-yl)methyl)pyridin-2-yl)thieno[3,2-b]-pyridin-7-yloxy)phenyl)urea] | < 50
C[C@H]1CN(Cc2ccc(-c3cc4nccc(Oc5ccc(NC(=O)NC6CC6)cc5F)c4s3)nc2)CCN1 [Compound 527] | < 50
CC(=O)OCC(=O)N1CCN(Cc2ccc(-c3cc4nccc(Oc5ccc(NC(=O)NC6CC6)cc5F)c4s3)nc2)C[C@@H]1C [Compound 528, (S)-2-(4-((6-(7-(4-(3-cyclopropylureido)-2-fluorophenoxy)thieno[3,2-b]pyridin-2-yl)pyridin-3-yl)methyl)-2-methylpiperazin-1-yl)-2-oxoethyl acetate] | < 50
C[C@H]1CN(Cc2ccc(-c3cc4nccc(Oc5ccc(NC(=O)NC6CC6)cc5F)c4s3)nc2)CCN1C(=O)CO [Compound 529, (S)-1-cyclopropyl-3-(3-fluoro-4-(2-(5-((4-(2-hydroxyacetyl)-3-methylpiperazin-1-yl)methyl)pyridin-2-yl)thieno[3,2-b]pyridin-7-yloxy)phenyl)urea] | < 50
C[C@@H]1CN(Cc2ccc(-c3cc4nccc(Oc5ccc(NC(=O)NC6CC6)cc5F)c4s3)nc2)C[C@H](C)N1 [Compound 530, 1-cyclopropyl-3-(4-(2-(5-(((3S,5R)-3,5-dimethylpiperazin-1-yl)methyl)pyridin-2-yl)thieno[3,2-b]-pyridin-7-yloxy)-3-fluorophenyl)urea] | < 50
C[C@@H]1CN(Cc2ccc(-c3cc4nccc(Oc5ccc(NC(=O)NC6CC6)cc5F)c4s3)nc2)C[C@H](C)N1C(=O)CO [Compound 531, 1-cyclopropyl-3-(3-fluoro-4-(2-(5-(((3S,5R)-4-(2-hydroxyacetyl)-3,5-dimethylpiperazin-1-yl)methyl)pyyridin-2-yl)thieno[3,2-b]pyridin-7-yloxy)phenyl)urea] | < 50
O=C(Nc1ccc(Oc2ccnc3cc(-c4ccc(CN5CCOCCOCCOCC5)cn4)sc23)c(F)c1)NC1CC1 [Compound 532] | < 50
O=C(Nc1ccc(Oc2ccnc3cc(-c4ccc(CN5CCOCCOCCOCCOCC5)cn4)sc23)c(F)c1)NC1CC1 [Compound 533] | < 50
O=C(Nc1ccc(Oc2ccnc3cc(-c4ccc(CN5CCN(C(=O)CCCC[C@H]6SC[C@H]7NC(=O)N[C@H]76)CC5)cn4)sc23)c(F)c1)NC1CC1 [Compound 535] | < 50
O=C(Nc1ccc(Oc2ccnc3cc(-c4ccc(CN5CCN(C(=O)[C@@H](O)CO)CC5)cn4)sc23)c(F)c1)NC1CC1 [Compound 536] | < 50
CC(C)(CO)C(=O)N1CCN(Cc2ccc(-c3cc4nccc(Oc5ccc(NC(=O)NC6CC6)cc5F)c4s3)nc2)CC1 [Compound 537] | < 50
CN(C)CC(=O)N1CCN(Cc2ccc(-c3cc4nccc(Oc5ccc(NC(=O)NC6CC6)cc5F)c4s3)nc2)CC1 [Compound 538] | < 50
CN1CCC(C(=O)N2CCN(Cc3ccc(-c4cc5nccc(Oc6ccc(NC(=O)NC7CC7)cc6F)c5s4)nc3)CC2)CC1 [Compound 539] | < 50
O=C(Nc1ccc(Oc2ccnc3cc(-c4ccc(CN5CCN(C(=O)[C@H](O)CO)CC5)cn4)sc23)c(F)c1)NC1CC1 [Compound 540] | < 50
O=C(Nc1ccc(Oc2ccnc3cc(-c4ccc(CN5CCN(C(=O)[C@H]6CCC(=O)O6)CC5)cn4)sc23)c(F)c1)NC1CC1 [Compound 543] | < 50
O=C(O)CCCCCCC(=O)N1CCN(Cc2ccc(-c3cc4nccc(Oc5ccc(NC(=O)NC6CC6)cc5F)c4s3)nc2)CC1 [Compound 544] | < 50

SMILES | IC50 [nM]
O=C(Nc1ccc(Oc2ccnc3cc(-c4ccc(CN5CCN(C(=O)CCO)CC5)cn4)sc23)c(F)c1)NC1CC1 [Compound 545] | < 50
O=C(O)CC[C@@H](O)C(=O)N1CCN(Cc2ccc(-c3cc4nccc(Oc5ccc(NC(=O)NC6CC6)cc5F)c4s3)nc2)CC1 [Compound 546] | < 50
CN(C)C/C=C/C(=O)N1CCN(Cc2ccc(-c3cc4nccc(Oc5ccc(NC(=O)NC6CC6)cc5F)c4s3)nc2)CC1 [Compound 547, (E)-1-cyclopropyl-3-(4-(2-(5-((4-(4-(dimethylamino)but-2-enoyl)piperazin-1-yl)methyl)pyridin-2-yl)thieno[3,2-b]pyridin-7-yloxy)-3-fluorophenyl)urea] | < 50
CC1=C(/C=C/C(C)=C/C=C/C(C)=C/C(=O)N2CCN(Cc3ccc(-c4cc5nccc(Oc6ccc(NC(=O)NC7CC7)cc6F)c5s4)nc3)CC2)C(C)(C)CCC1 [Compound 548, 1-cyclopropyl-3-(4-(2-(5-((4-((2E,4E,6E,8E)-3,7-dimethyl-9-(2,6,6-trimethylcyclohex-1-enyl)nona-2,4,6,8-tetraenoyl)piperazin-1-yl)methyl)pyridin-2-yl)thieno[3,2-b]pyridin-7-yloxy)-3-fluorophenyl)urea] | ≥ 250
CN(C)CCNCC(=O)N1CCN(Cc2ccc(-c3cc4nccc(Oc5ccc(NC(=O)NC6CC6)cc5F)c4s3)nc2)CC1 [Compound 549, 1-cyclopropyl-3-(4-(2-(5-((4-(2-(2-(dimethylamino)ethylamino)acetyl)piperazin-1-yl)methyl)pyridin-2-yl)thieno[3,2-b]pyridin-7-yloxy)-3-fluorophenyl)urea] | < 50
O=C(Nc1ccc(Oc2ccnc3cc(-c4ccc(C(=O)N5CCNCC5)cn4)sc23)c(F)c1)NC1CC1 [Compound 550] | < 50
CCNC(=O)N1CCN(Cc2ccc(-c3cc4nccc(Oc5ccc(NC(=O)NC6CC6)cc5F)c4s3)nc2)CC1 [Compound 551] | < 50
CNC(=O)N1CCN(Cc2ccc(-c3cc4nccc(Oc5ccc(NC(=O)NC6CC6)cc5F)c4s3)nc2)CC1 [Compound 552] | < 50
CCNC(=O)N1CCN(Cc2ccc(-c3cc4nccc(Oc5ccc(NC(=O)NC6CC6)cc5F)c4s3)nc2)C[C@@H]1C [Compound 556] | < 50
CCNC(=O)N1CCN(C(=O)c2ccc(-c3cc4nccc(Oc5ccc(NC(=O)NC6CC6)cc5F)c4s3)nc2)CC1 [Compound 557] | < 50
O=C(O)CNC(=O)N1CCN(Cc2ccc(-c3cc4nccc(Oc5ccc(NC(=O)NC6CC6)cc5F)c4s3)nc2)CC1 [Compound 558] | < 50
O=C(O)CCNC(=O)N1CCN(Cc2ccc(-c3cc4nccc(Oc5ccc(NC(=O)NC6CC6)cc5F)c4s3)nc2)CC1 [Compound 559] | < 50
CC(O)CN1CCN(Cc2ccc(-c3cc4nccc(Oc5ccc(NC(=O)NC6CC6)cc5F)c4s3)nc2)CC1 (stereo not drawn) [Compound 562] | < 50
CC(C)(O)CN1CCN(Cc2ccc(-c3cc4nccc(Oc5ccc(NC(=O)NC6CC6)cc5F)c4s3)nc2)CC1 [Compound 570] | < 50
C[C@H](CN1CCN(Cc2ccc(-c3cc4nccc(Oc5ccc(NC(=O)NC6CC6)cc5F)c4s3)nc2)CC1)C(=O)O [Compound 574] | < 50
CC(C)(CN1CCN(Cc2ccc(-c3cc4nccc(Oc5ccc(NC(=O)NC6CC6)cc5F)c4s3)nc2)CC1)C(=O)O [Compound 575] | < 50
CC(C)(CN1CCN(C(=O)c2ccc(-c3cc4nccc(Oc5ccc(NC(=O)NC6CC6)cc5F)c4s3)nc2)CC1)C(=O)O [Compound 576] | < 50
COC(=O)CCN1CCN(C(=O)c2ccc(-c3cc4nccc(Oc5ccc(NC(=O)NC6CC6)cc5F)c4s3)nc2)CC1 [Compound 580] | < 50
O=C(Nc1ccc(Oc2ccnc3cc(-c4ccc(C(=O)N5CCN(CCO)CC5)cn4)sc23)c(F)c1)NC1CC1 [Compound 581, 1-cyclopropyl-3-(3-fluoro-4-(2-(5-(4-(2-hydroxyethyl)piperazine-1-carbonyl)pyridin-2-yl)thieno[3,2-b]pyridin-7-yloxy)phenyl)urea] | < 50
C[C@H]1CN(Cc2ccc(-c3cc4nccc(Oc5ccc(NC(=O)NC6CC6)cc5F)c4s3)nc2)CCN1CCO [Compound 582, (S)-1-cyclopropyl-3-(3-fluoro-4-(2-(5-((4-(2-hydroxyethyl)-3-methylpiperazin-1-yl)methyl)pyridin-2-yl)thieno[3,2-b]pyridin-7-yloxy)phenyl)urea] | < 50
C[C@@H]1CN(Cc2ccc(-c3cc4nccc(Oc5ccc(NC(=O)NC6CC6)cc5F)c4s3)nc2)C[C@H](C)N1CCO [Compound 583] | < 50
